Assay results taken from article PMC8400246, “Antimicrobial Activity and Action Mechanisms of Arg-Rich Short Analog Peptides Designed from the C-Terminal Loop Region of American Oyster Defensin (AOD)” (Marine Drugs, 2021).
Positions of bridges follow the written chain, without caps; N, C: chain ends. Residues, ends and D or L forms follow the SMILES beside them.

Tests used:
P. aeruginosa KCTC2004 = assay: Ultrasensitive radial diffusion assay (URDA), MEC; type: cell-based, Pseudomonas aeruginosa; conditions: P. aeruginosa KCTC2004, Gram -, pH 6.6, 37 °C, triplicate, averaged
Description: (§1) The antimicrobial activity of the AOD analogs was assessed with an ultrasensitive radial diffusion assay (URDA), as described previously. The antimicrobial activity of the analogs (from 31.3 to 1000 μg/mL, 5 μL volume) was tested against several bacteria, including Bacillus subtilis KCTC1021, Streptococcus mutans KCCM40105, Aeromonas hydrophila KCTC2358, Escherichia coli D31, E. coli ML35p, Pseudomonas aeruginosa KCTC2004, Salmonella enterica KCTC2514, and Shigella sonnei KCTC2009. In addition, Cutibacterium acnes KCTC3314, Staphylococcus epidermidis KCTC1917, and Candida albicans KCTC7965 were used for the anti-acne activity test. All except C. acnes KCTC3314 were grown overnight for 18 h in tryptic soy broth (TSB; for bacteria) or Sabouraud dextrose broth (SDB; for C. albicans) at the appropriate temperature (25 °C for A. hydrophila, 37 °C for the others). C. acnes was grown for 72 h in reinforced clostridial medium (RCM) under anaerobic conditions with an anaerobic gas-generating pouch (GasPak EZ; Becton Dickinson and Company, Sparks, MD, USA) at 37 °C. Following overnight or 72-h incubation, the bacterial and C. albicans suspensions were diluted to a McFarland turbidity standard level of 0.5 (Vitek Colorimeter #52-1210; Hach, Loveland, CO, USA) corresponding to approximately 10^8 colony forming units (CFU)/mL for bacteria and 10^6 CFU/mL for C. albicans. Diluted bacterial or C. albicans suspension (0.5 mL) was added to 9.5 mL underlay gel containing 5 × 10^6 or 5 × 10^4 CFU/mL in 10 mM phosphate buffer (pH 6.6) with 0.03% TSB (or RCM) or 0.03% SDB and 1% Type I low-electroendosmosis agarose. The AOD analogs were serially diluted two-fold in 5 µL acidified water (0.01% acetic acid; HAc) and each dilution was added to 2.5-mm diameter wells in the 1-mm thick underlay gel. After incubation for 3 h at either 25 °C (for A. hydrophila) or 37 °C (for the others), the bacterial or yeast suspension was overlaid with 10 mL double-strength overlay gel containing 6% TSB, RCM, or SDB with 10 mM phosphate buffer (pH 6.6) in 1% agarose. Plates were incubated for an additional 18–24 h (72 h for C. acnes) and the clearing zone diameters were measured. After subtracting the diameter of the well (2.5 mm), the clearing zone diameter was expressed in units (0.1 mm = 1 U).
(§2) The minimal effective concentration (MEC; μg/mL) of the AOD analogs was calculated as the X-intercept of a plot of clearing zone diameter units against the log10 of the peptide concentration. Piscidin 1, an α-helical AMP isolated from hybrid striped bass (Morone saxatilis × Morone chrysops) was used as a positive control.

S. mutans KCCM40105 = assay: Ultrasensitive radial diffusion assay (URDA), MEC; type: cell-based, Streptococcus mutans; conditions: S. mutans KCCM40105, Gram +, pH 6.6, 37 °C, triplicate, averaged
Description: as §1, §2

C. albicans KCTC7965 = assay: Ultrasensitive radial diffusion assay (URDA), MEC; type: cell-based, Candida albicans; conditions: C. albicans KCTC7965, yeast, SDB, pH 6.6, 37 °C, triplicate, averaged
Description: as §1, §2

B. subtilis KCTC1021 = assay: Ultrasensitive radial diffusion assay (URDA), MEC; type: cell-based, Bacillus subtilis; conditions: B. subtilis KCTC1021, Gram +, 10 mM phosphate buffer pH 6.6, 37 °C, X-intercept of clearing zone vs log10 concentration, triplicate, averaged
Description: as §1, §2

A. hydrophila KCTC2358 = assay: Ultrasensitive radial diffusion assay (URDA), MEC; type: cell-based, Aeromonas hydrophila; conditions: A. hydrophila KCTC2358, Gram -, pH 6.6, 25 °C, triplicate, averaged
Description: as §1, §2

S. sonnei KCTC2009 = assay: Ultrasensitive radial diffusion assay (URDA), MEC; type: cell-based, Shigella sonnei; conditions: S. sonnei KCTC2009, Gram -, pH 6.6, 37 °C, triplicate, averaged
Description: as §1, §2

[1] = system: tested strains (bacteria and the yeast C. albicans); assay: URDA, overall antimicrobial activity; type: cell-based; conditions: all tested strains
Description: The antimicrobial activity of the AOD analogs was assessed with an ultrasensitive radial diffusion assay (URDA), as described previously. The antimicrobial activity of the analogs (from 31.3 to 1000 μg/mL, 5 μL volume) was tested against several bacteria, including Bacillus subtilis KCTC1021, Streptococcus mutans KCCM40105, Aeromonas hydrophila KCTC2358, Escherichia coli D31, E. coli ML35p, Pseudomonas aeruginosa KCTC2004, Salmonella enterica KCTC2514, and Shigella sonnei KCTC2009. In addition, Cutibacterium acnes KCTC3314, Staphylococcus epidermidis KCTC1917, and Candida albicans KCTC7965 were used for the anti-acne activity test. All except C. acnes KCTC3314 were grown overnight for 18 h in tryptic soy broth (TSB; for bacteria) or Sabouraud dextrose broth (SDB; for C. albicans) at the appropriate temperature (25 °C for A. hydrophila, 37 °C for the others). C. acnes was grown for 72 h in reinforced clostridial medium (RCM) under anaerobic conditions with an anaerobic gas-generating pouch (GasPak EZ; Becton Dickinson and Company, Sparks, MD, USA) at 37 °C. […] Plates were incubated for an additional 18–24 h (72 h for C. acnes) and the clearing zone diameters were measured. […]
The minimal effective concentration (MEC; μg/mL) of the AOD analogs was calculated as the X-intercept of a plot of clearing zone diameter units against the log10 of the peptide concentration. […]

S. epidermidis KCTC1917 = assay: Ultrasensitive radial diffusion assay (URDA), MEC; type: cell-based, Staphylococcus epidermidis; conditions: S. epidermidis KCTC1917, Gram +, pH 6.6, 37 °C, triplicate, averaged
Description: as §1, §2

C. acnes KCTC3314 = assay: Ultrasensitive radial diffusion assay (URDA), MEC; type: cell-based, Cutibacterium acnes; conditions: C. acnes KCTC3314, Gram +, anaerobic, RCM, 72 h, 37 °C, triplicate, averaged
Description: as §1, §2

S. enterica KCTC2514 = assay: Ultrasensitive radial diffusion assay (URDA), MEC; type: cell-based, Salmonella enterica; conditions: S. enterica KCTC2514, Gram -, pH 6.6, 37 °C, triplicate, averaged
Description: as §1, §2

E. coli D31 = assay: Ultrasensitive radial diffusion assay (URDA), MEC; type: cell-based, Escherichia coli; conditions: E. coli D31, Gram -, pH 6.6, 37 °C, triplicate, averaged
Description: as §1, §2

E. coli ML35p = assay: Ultrasensitive radial diffusion assay (URDA), MEC; type: cell-based, Escherichia coli; conditions: Gram -, pH 6.6, 37 °C, triplicate, averaged
Description: as §1, §2

[2] = system: E. coli DH5α genomic DNA (16S ribosomal gene); assay: DNA amplification (PCR) inhibition assay; type: biochemical, Escherichia coli; conditions: 1.5 µg of each analog, 0.2 µg E. coli DH5α gDNA, 30 cycles
Description: To determine whether AOD analogs target DNA amplification, the ability of the analogs to inhibit DNA amplification was assessed using E. coli DH5α genomic DNA (gDNA). Total gDNA was extracted using the phenol–chloroform method, as described previously. To assess the inhibition of DNA amplification, 1.5 µg AOD analog was added to the polymerase chain reaction (PCR) mixture. The PCR solution consisted of 0.2 µg purified gDNA, 5 µL 10× PCR buffer with MgCl2, 4 µL of each dNTP at 2.5 mM, 0.25 μL Ex Taq polymerase (Takara Bio, Shiga, Japan), 2.0 pmol each of primers 27F (5′-[…]-3′) and 1492R (5′-TACGGCTACCTTGTTACGA-CTT-3′), and up to 50 µL sterile distilled water. The PCR thermal cycling conditions were as follows: initial denaturation at 94 °C for 5 min; 30 cycles of 94 °C for 30 s, 55 °C for 30 s, and 72 °C for 2 min; and a final extension for 10 min at 72 °C. PCR was conducted using a Type 9700 Thermal Cycler (Perkin-Elmer, Norwalk City, CA, USA). The PCR products were confirmed through 1.5% agarose gel electrophoresis with 0.5 μg/mL EtBr. Piscidin 1 was used as a positive control and 0.01% HAc was used as a negative control.

V. parahaemolyticus gDNA = assay: Bacterial gDNA binding (electrophoretic mobility shift); design: species or system Vibrio parahaemolyticus; conditions: 1 μg of analog with V. parahaemolyticus gDNA, agarose gel
Description: To evaluate the binding ability of the AOD analogs to intracellular components, a DNA binding assay was performed as previously described with minor modifications. The DNA-binding ability of the AOD analogs was assessed through observation of the inhibition of migration of DNA bands through agarose gels. […] HAc (0.01%) was used as a negative control.

[3] = system: 100-bp DNA ladder and DNA polymerase; assay: Competitive binding between DNA and DNA polymerase; conditions: 1 μg peptide, 0.2 μg 100-bp DNA ladder, DNA polymerase 1.0 μL (5 units/μL), 37 °C, 60 min
Description: To assess the preferential binding ability of the AOD analogs to DNA or DNA polymerase, a competitive binding assay was performed. Briefly, AOD analog was added to a reaction mixture containing DNA or DNA polymerase and incubated for 60 min at 37 °C. […] Piscidin 1 and 0.01% HAc were the positive and negative controls, respectively.

100-bp DNA ladder = assay: DNA binding assay (electrophoretic mobility shift); conditions: 1 μg analog with 0.2 μg 100-bp DNA ladder, 37 °C, 60 min, 1.8% agarose gel with EtBr
Description: To evaluate the binding ability of the AOD analogs to intracellular components, a DNA binding assay was performed as previously described with minor modifications. The DNA-binding ability of the AOD analogs was assessed through observation of the inhibition of migration of DNA bands through agarose gels. A commercial 100-bp DNA ladder (0.2 μg) (Bioneer Corp., Daejeon, South Korea) was mixed with each analog (1 μg) in 0.01% acetic acid, and the resulting mixture was incubated at 37 °C for 60 min and then electrophoresed on 1.8% agarose gels containing 0.5 μg/mL ethidium bromide (EtBr). HAc (0.01%) was used as a negative control.
To determine the concentration required for the interaction of AOD analogs with DNA, a DNA binding assay was performed with various mixing ratios of analog A3 (0.25–1.0 μg/mL) and 100-bp DNA ladder (0.1–0.4 μg), as described above.

With `CC(C)C[C@@H]1NC(=O)[C@H](CO)NC(=O)CNC(=O)[C@H](C)NC(=O)[C@@H](N)CSSC[C@@H](C(=O)O)NC(=O)[C@H]([C@@H](C)O)NC(=O)[C@H](CC(C)C)NC(=O)[C@H](CCCNC(=N)N)NC1=O` [Analog A0] (H-CAGSLRLTC-OH; disulfide 1-9) the “Minimal Effective Concentration” value (P. aeruginosa KCTC2004) was >100.0 µg/mL, the “Minimal Effective Concentration” value (S. mutans KCCM40105) was >100.0 µg/mL and the “Minimal Effective Concentration” value (C. albicans KCTC7965) was >125.0 µg/mL. For the same compound, the “Minimal Effective Concentration” value (B. subtilis KCTC1021) was >100.0 µg/mL, the “Minimal Effective Concentration” value (A. hydrophila KCTC2358) was >100.0 µg/mL and the “Minimal Effective Concentration” value (S. sonnei KCTC2009) was >100.0 µg/mL. For the same compound, the “antimicrobial activity (in words)” value [1] was “no activity against any of the tested strains”, the “Minimal Effective Concentration” value (S. epidermidis KCTC1917) was >100.0 µg/mL and the “Minimal Effective Concentration” value (C. acnes KCTC3314) was >100.0 µg/mL. For the same compound, the “Minimal Effective Concentration” value (S. enterica KCTC2514) was >100.0 µg/mL, the “Minimal Effective Concentration” value (E. coli D31) was >100.0 µg/mL and the “Minimal Effective Concentration” value (E. coli ML35p) was >100.0 µg/mL.

For `N=C(N)NCCC[C@@H]1NC(=O)[C@H](CCCNC(=N)N)NC(=O)[C@H](Cc2c[nH]c3ccccc23)NC(=O)CNC(=O)[C@H](Cc2c[nH]c3ccccc23)NC(=O)[C@H](CCCNC(=N)N)NC(=O)[C@H](CCCNC(=N)N)NC(=O)[C@@H](N)CSSC[C@@H](C(N)=O)NC1=O` [Analog A4] (H-CRRWGWRRC-NH2; disulfide 1-9), the “Minimal Effective Concentration” value (P. aeruginosa KCTC2004) was 29.5 µg/mL, the “inhibition of DNA amplification (PCR)” value [2] was “partially or completely inhibited” and the “Minimal Effective Concentration” value (S. mutans KCCM40105) was 10.5 µg/mL. For the same compound, the “electrophoretic mobility of V. parahaemolyticus gDNA” value (V. parahaemolyticus gDNA) was “inhibited”, the “Minimal Effective Concentration” value (C. albicans KCTC7965) was 17.2 µg/mL and the “Minimal Effective Concentration” value (B. subtilis KCTC1021) was 2.5 µg/mL. The “competitive binding between DNA and DNA polymerase (electrophoretic mobility of DNA)” value [3] was “inhibited”, the “Minimal Effective Concentration” value (S. epidermidis KCTC1917) was 15.8 µg/mL and the “electrophoretic mobility of the DNA (DNA-binding ability)” value (100-bp DNA ladder) was “inhibited”. The “Minimal Effective Concentration” value (C. acnes KCTC3314) was 27.1 µg/mL, the “Minimal Effective Concentration” value (E. coli D31) was 5.7 µg/mL and the “Minimal Effective Concentration” value (E. coli ML35p) was 2.2 µg/mL.
